Data: patent US20250115600A1, “COVALENT MODIFIERS OF AKT1 AND USES THEREOF” (Terremoto Biosciences, Inc., priority 2022, published 2025)

Assays:
Experiment in all cases: Live cell target engagement (NanoBRET) in HEK293 cells
Assay type in all cases: cell-based
[1] = biological target: AKT2 (Homo sapiens (Human), UniProt P31751); details: HEK293, 2 hours at 37° C.
[2] = biological target: AKT1 E17K (Homo sapiens (Human), UniProt P31749, E17K); details: for IC50: HEK293, 2 hours at 37° C.
[3] = biological target: AKT1 WT (Homo sapiens (Human), UniProt P31749); details: HEK293, 2 hours at 37° C.
Chain of AKT1 WT (P31749 whole entry): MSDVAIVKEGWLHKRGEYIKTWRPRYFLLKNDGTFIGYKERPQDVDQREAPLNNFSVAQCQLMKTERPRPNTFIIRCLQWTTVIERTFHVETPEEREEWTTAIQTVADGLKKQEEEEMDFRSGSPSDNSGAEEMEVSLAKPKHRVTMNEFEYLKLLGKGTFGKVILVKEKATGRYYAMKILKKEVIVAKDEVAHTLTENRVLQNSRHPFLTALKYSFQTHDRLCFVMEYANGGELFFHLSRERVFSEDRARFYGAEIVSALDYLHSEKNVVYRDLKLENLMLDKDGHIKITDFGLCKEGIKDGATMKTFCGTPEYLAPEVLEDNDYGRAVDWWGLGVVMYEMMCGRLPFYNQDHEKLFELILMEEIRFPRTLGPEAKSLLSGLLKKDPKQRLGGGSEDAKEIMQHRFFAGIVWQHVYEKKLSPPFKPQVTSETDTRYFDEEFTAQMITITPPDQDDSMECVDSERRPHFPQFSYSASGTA

Chain of AKT1 E17K (P31749 whole entry E17K): as the sequence (P31749 whole entry) above, with E17K counted along it
Chain of AKT2 (P31751 whole entry): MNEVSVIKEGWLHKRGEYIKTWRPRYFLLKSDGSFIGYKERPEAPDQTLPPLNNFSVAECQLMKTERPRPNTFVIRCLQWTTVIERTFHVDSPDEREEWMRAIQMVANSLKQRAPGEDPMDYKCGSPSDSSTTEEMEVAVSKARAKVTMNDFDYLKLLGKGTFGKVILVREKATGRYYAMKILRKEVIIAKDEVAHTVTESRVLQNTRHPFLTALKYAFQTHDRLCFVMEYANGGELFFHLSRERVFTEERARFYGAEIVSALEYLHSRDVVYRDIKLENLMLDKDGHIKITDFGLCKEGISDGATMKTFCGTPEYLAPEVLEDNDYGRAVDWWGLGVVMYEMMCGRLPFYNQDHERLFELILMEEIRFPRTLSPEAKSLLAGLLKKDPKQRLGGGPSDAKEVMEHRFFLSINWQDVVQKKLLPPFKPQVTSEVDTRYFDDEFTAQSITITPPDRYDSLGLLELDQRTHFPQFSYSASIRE

SMILES: Cc1ccc2nc(-c3cccnc3N)n(-c3ccc(CNC(=O)Cc4ccc(C=O)c(O)c4)cc3)c2n1 [Compound 24, N-({4-[2-(2-aminopyridin-3-yl)-5-methylimidazo[4,5-b]pyridin-3-yl]phenyl}methyl)-2-(4-formyl-3-hydroxyphenyl)acetamide]
- IC50 [1]: > 500 nM
- AKT1 E17K IC50: Selectivity vs AKT1 WT [2]: 4.3
- AKT1 E17K IC50: Selectivity vs AKT2 [2]: 210
- IC50 [2]: < 100 nM
- IC50 [3]: < 100 nM

SMILES: Nc1ncccc1-c1nc2ccc(NC3CC3)nc2n1-c1ccc(CNC(=O)Cc2ccc(C=O)c(O)c2)cc1 [Compound 25, N-({4-[2-(2-aminopyridin-3-yl)-5-(cyclopropylamino)imidazo[4,5-b]pyridin-3-yl]phenyl}methyl)-2-(4-formyl-3-hydroxyphenyl)acetamide]
- IC50 [1]: > 500 nM
- AKT1 E17K IC50: Selectivity vs AKT1 WT [2]: 4.3
- AKT1 E17K IC50: Selectivity vs AKT2 [2]: 120
- IC50 [2]: < 100 nM
- IC50 [3]: < 100 nM

SMILES: Nc1ncccc1-c1nc2ccc(C3CC3)nc2n1-c1ccc(CNC(=O)C(F)c2ccc(C=O)c(O)c2)cc1 (centres unmarked) [Compound 26, N-({4-[2-(2-aminopyridin-3-yl)-5-cyclopropylimidazo[4,5-b]pyridin-3-yl]phenyl}methyl)-2-fluoro-2-(4-formyl-3-hydroxyphenyl)acetamide]
- IC50 [1]: > 500 nM
- AKT1 E17K IC50: Selectivity vs AKT1 WT [2]: 2.4
- AKT1 E17K IC50: Selectivity vs AKT2 [2]: 190
- IC50 [2]: < 100 nM
- IC50 [3]: < 100 nM

SMILES: Nc1ncccc1-c1nc2ccc(C3CC3)nc2n1-c1ccc(CNC(=O)c2ccc(O)c(C=O)c2)cc1 [Compound 27, N-({4-[2-(2-aminopyridin-3-yl)-5-cyclopropylimidazo[4,5-b]pyridin-3-yl]phenyl}methyl)-3-formyl-4-hydroxybenzamide]
- IC50 [1]: > 500 nM
- AKT1 E17K IC50: Selectivity vs AKT1 WT [2]: 3.8
- AKT1 E17K IC50: Selectivity vs AKT2 [2]: 110
- IC50 [2]: < 100 nM
- IC50 [3]: 100 to 500 nM

SMILES: Nc1ncccc1-c1nc2ccc(-c3ccccc3)nc2n1-c1ccc(NC(=O)Cc2ccc(O)c(C=O)c2)cc1 [Compound 28, N-{4-[2-(2-aminopyridin-3-yl)-5-phenylimidazo[4,5-b]pyridin-3-yl]phenyl}-2-(3-formyl-4-hydroxyphenyl)acetamide]
- IC50 [1]: 100 to 500 nM
- AKT1 E17K IC50: Selectivity vs AKT1 WT [2]: 1.3
- AKT1 E17K IC50: Selectivity vs AKT2 [2]: 17
- IC50 [2]: < 100 nM
- IC50 [3]: < 100 nM

SMILES: Nc1ncccc1-c1nc2ccc(-c3ccccc3)nc2n1-c1ccc(C(=O)NCc2ccc(O)c(C=O)c2)cc1 [Compound 29, 4-(2-(2-aminopyridin-3-yl)-5-phenyl-3H-imidazo[4,5-b]pyridin-3-yl)-N-(3-formyl-4-hydroxybenzyl)benzamide]
- IC50 [1]: 100 to 500 nM
- AKT1 E17K IC50: Selectivity vs AKT1 WT [2]: 3
- AKT1 E17K IC50: Selectivity vs AKT2 [2]: 23
- IC50 [2]: < 100 nM
- IC50 [3]: < 100 nM

SMILES: Nc1ncccc1-c1nc2ccc(-c3ccccc3)nc2n1-c1ccc(C(CO)NC(=O)Cc2ccc(C=O)c(O)c2F)cc1 (centres unmarked) [Compound 30, N-(1-(4-(2-(2-aminopyridin-3-yl)-5-phenyl-3H-imidazo[4,5-b]pyridin-3-yl)phenyl)-2-hydroxyethyl)-2-(2-fluoro-4-formyl-3-hydroxyphenyl)acetamide]
- IC50 [1]: > 500 nM
- AKT1 E17K IC50: Selectivity vs AKT1 WT [2]: 1.9
- AKT1 E17K IC50: Selectivity vs AKT2 [2]: 6.2
- IC50 [2]: < 100 nM
- IC50 [3]: 100 to 500 nM

SMILES: Cn1cc(-c2ccc3nc(-c4cccnc4N)n(-c4ccc(CNC(=O)Cc5ccc(C=O)c(O)c5)cc4)c3n2)cn1 [Compound 32, N-({4-[2-(2-aminopyridin-3-yl)-5-(1-methylpyrazol-4-yl)imidazo[4,5-b]pyridin-3-yl]phenyl}methyl)-2-(4-formyl-3-hydroxyphenyl)acetamide]
- IC50 [1]: > 500 nM
- AKT1 E17K IC50: Selectivity vs AKT1 WT [2]: 9
- AKT1 E17K IC50: Selectivity vs AKT2 [2]: 110
- IC50 [2]: < 100 nM
- IC50 [3]: 100 to 500 nM

SMILES: COc1ccc2nc(-c3cccnc3N)n(-c3ccc(CNC(=O)Cc4ccc(C=O)c(O)c4)cc3)c2n1 [Compound 33, N-(4-(2-(2-aminopyridin-3-yl)-5-methoxy-3H-imidazo[4,5-b]pyridin-3-yl)benzyl)-2-(4-formyl-3-hydroxyphenyl)acetamide]
- IC50 [1]: > 500 nM
- AKT1 E17K IC50: Selectivity vs AKT1 WT [2]: 23
- AKT1 E17K IC50: Selectivity vs AKT2 [2]: 400
- IC50 [2]: < 100 nM
- IC50 [3]: 100 to 500 nM

SMILES: Nc1ncccc1-c1nc2ccc(-c3ccnc(N4CCOCC4)c3)nc2n1-c1ccc(CNC(=O)Cc2ccc(C=O)c(O)c2)cc1 [Compound 34, N-({4-[2-(2-aminopyridin-3-yl)-5-[2-(morpholin-4-yl)pyridin-4-yl]imidazo[4,5-b]pyridin-3-yl]phenyl}methyl)-2-(4-formyl-3-hydroxyphenyl)acetamide]
- IC50 [1]: > 500 nM
- AKT1 E17K IC50: Selectivity vs AKT1 WT [2]: 10
- AKT1 E17K IC50: Selectivity vs AKT2 [2]: 40
- IC50 [2]: < 100 nM
- IC50 [3]: 100 to 500 nM

SMILES: Nc1ncccc1-c1nc2ccc(-n3cccn3)nc2n1-c1ccc(CNC(=O)Cc2ccc(C=O)c(O)c2)cc1 [Compound 35, N-({4-[2-(2-aminopyridin-3-yl)-5-(pyrazol-1-yl)imidazo[4,5-b]pyridin-3-yl]phenyl}methyl)-2-(4-formyl-3-hydroxyphenyl)acetamide]
- IC50 [1]: 100 to 500 nM
- AKT1 E17K IC50: Selectivity vs AKT1 WT [2]: 3.4
- AKT1 E17K IC50: Selectivity vs AKT2 [2]: 140
- IC50 [2]: < 100 nM
- IC50 [3]: < 100 nM

SMILES: Nc1ncccc1-c1nc2ccc(-c3ccccc3)nc2n1-c1ccc(CCNCCc2ccc(C=O)c(O)c2)cc1 [Compound 36, 4-(2-((4-(2-(2-aminopyridin-3-yl)-5-phenyl-3H-imidazo[4,5-b]pyridin-3-yl)phenethyl)amino)ethyl)-2-hydroxybenzaldehyde]
- IC50 [1]: 100 to 500 nM
- AKT1 E17K IC50: Selectivity vs AKT1 WT [2]: 2
- AKT1 E17K IC50: Selectivity vs AKT2 [2]: 9.2
- IC50 [2]: < 100 nM
- IC50 [3]: < 100 nM

SMILES: CC(C(=O)NCc1ccc(-n2c(-c3cccnc3N)nc3ccc(-c4ccccc4)nc32)cc1)c1ccc(C=O)c(O)c1 (centres unmarked) [Compound 37]
- IC50 [1]: > 500 nM
- AKT1 E17K IC50: Selectivity vs AKT1 WT [2]: 11
- AKT1 E17K IC50: Selectivity vs AKT2 [2]: 180
- IC50 [2]: < 100 nM
- IC50 [3]: < 100 nM

SMILES: Nc1ncccc1-c1nc2ccc(-c3ccccc3)nc2n1-c1ccc(N2CC(NCc3ccc(C=O)c(O)c3)C2)cc1 [Compound 38, 4-(((1-(4-(2-(2-aminopyridin-3-yl)-5-phenyl-3H-imidazo[4,5-b]pyridin-3-yl)phenyl)azetidin-3-yl)amino)methyl)-2-hydroxybenzaldehyde]
- IC50 [1]: > 500 nM
- AKT1 E17K IC50: Selectivity vs AKT1 WT [2]: 1.5
- AKT1 E17K IC50: Selectivity vs AKT2 [2]: 15
- IC50 [2]: 100 to 500 nM
- IC50 [3]: 100 to 500 nM

SMILES: CN(CCc1ccc(-n2c(-c3cccnc3N)nc3ccc(-c4ccccc4)nc32)cc1)Cc1ccc(C=O)c(O)c1 [Compound 39, 4-{[(2-{4-[2-(2-aminopyridin-3-yl)-5-phenylimidazo[4,5-b]pyridin-3-yl]phenyl}ethyl)(methyl)amino]methyl}-2-hydroxybenzaldehyde]
- IC50 [1]: 100 to 500 nM
- AKT1 E17K IC50: Selectivity vs AKT1 WT [2]: 1.5
- AKT1 E17K IC50: Selectivity vs AKT2 [2]: 5.2
- IC50 [2]: < 100 nM
- IC50 [3]: 100 to 500 nM

SMILES: Nc1ncccc1-c1nc2ccc(-c3ccccc3)nc2n1-c1ccc(CCNCc2ccc(C=O)c(O)c2F)cc1 [Compound 40, 4-(((4-(2-(2-aminopyridin-3-yl)-5-phenyl-3H-imidazo[4,5-b]pyridin-3-yl)phenethyl)amino)methyl)-3-fluoro-2-hydroxybenzaldehyde]
- IC50 [1]: 100 to 500 nM
- AKT1 E17K IC50: Selectivity vs AKT1 WT [2]: 2.2
- AKT1 E17K IC50: Selectivity vs AKT2 [2]: 6.7
- IC50 [2]: < 100 nM
- IC50 [3]: < 100 nM

SMILES: CC(C)(C)c1cc(C(=O)NCc2ccc(-n3c(-c4cccnc4N)nc4ccc(-c5ccccc5)nc43)cc2)cc(C=O)c1O [Compound 41, N-(4-(2-(2-aminopyridin-3-yl)-5-phenyl-3H-imidazo[4,5-b]pyridin-3-yl)benzyl)-3-(tert-butyl)-5-formyl-4-hydroxybenzamide]
- IC50 [1]: > 500 nM
- AKT1 E17K IC50: Selectivity vs AKT1 WT [2]: 0.24
- AKT1 E17K IC50: Selectivity vs AKT2 [2]: 0.77
- IC50 [2]: > 500 nM
- IC50 [3]: > 500 nM

SMILES: Nc1ncccc1-c1nc2ccc(-c3cccc(N4CCC(N5CCCC5=O)CC4)c3F)nc2n1-c1ccc(CNC(=O)Cc2ccc(C=O)c(O)c2)cc1 [Compound 42, N-({4-[2-(2-aminopyridin-3-yl)-5-{2-fluoro-3-[4-(2-oxopyrrolidin-1-yl)piperidin-1-yl]phenyl}imidazo[4,5-b]pyridin-3-yl]phenyl}methyl)-2-(4-formyl-3-hydroxyphenyl)acetamide]
- IC50 [1]: < 100 nM
- AKT1 E17K IC50: Selectivity vs AKT1 WT [2]: 1.7
- AKT1 E17K IC50: Selectivity vs AKT2 [2]: 4.8
- IC50 [2]: < 100 nM
- IC50 [3]: < 100 nM

SMILES: CN(C)C(=O)Nc1cc(CC(=O)NCc2ccc(-n3c(-c4cccnc4N)nc4cccnc43)cc2)ccc1C=O [Compound 43, N-(4-(2-(2-aminopyridin-3-yl)-3H-imidazo[4,5-b]pyridin-3-yl)benzyl)-2-(3-(3,3-dimethylureido)-4-formylphenyl)acetamide]
- IC50 [1]: > 500 nM
- AKT1 E17K IC50: Selectivity vs AKT1 WT [2]: 4.5
- AKT1 E17K IC50: Selectivity vs AKT2 [2]: >150
- IC50 [2]: < 100 nM
- IC50 [3]: 100 to 500 nM

SMILES: Cn1cc(C(=O)Nc2cc(CC(=O)NCc3ccc(-n4c(-c5cccnc5N)nc5cccnc54)cc3)ccc2C=O)cn1 [Compound 44, N-(5-(2-((4-(2-(2-aminopyridin-3-yl)-3H-imidazo[4,5-b]pyridin-3-yl)benzyl)amino)-2-oxoethyl)-2-formylphenyl)-1-methyl-1H-pyrazole-4-carboxamide]
- IC50 [1]: > 500 nM
- AKT1 E17K IC50: Selectivity vs AKT1 WT [2]: 3.6
- AKT1 E17K IC50: Selectivity vs AKT2 [2]: 34
- IC50 [2]: 100 to 500 nM
- IC50 [3]: > 500 nM

SMILES: Nc1ncccc1-c1nc2ccc(-c3ccccc3)nc2n1-c1ccc(CNC(=O)CCc2ccc(C=O)c(O)c2)cc1 [Compound 117]
- IC50 [1]: 100 to 500 nM
- AKT1 E17K IC50: Selectivity vs AKT1 WT [2]: 0.47
- AKT1 E17K IC50: Selectivity vs AKT2 [2]: 2
- IC50 [2]: 100 to 500 nM

SMILES: Nc1ncccc1-c1nc2ccc(-c3ccccc3)nc2n1-c1ccc(CNC(=O)c2ccc(C=O)c(O)c2)cc1 [Compound 138, N-(4-(2-(2-aminopyridin-3-yl)-5-phenyl-3H-imidazo[4,5-b]pyridin-3-yl)benzyl)-4-formyl-3-hydroxybenzamide]
- AKT1 E17K IC50: Selectivity vs AKT1 WT [2]: 0.52
- IC50 [2]: < 100 nM
- IC50 [3]: < 100 nM
